# Laboratory results as given in patent US7781580B2, “Stilbene derivatives as new cancer therapeutic agents” (Virginia Commonwealth University, priority 2007, dated 2010).
# Tests used:
# Tubulin (>99% pure) = experiment: tubulin polymerization assay (OD 340 nm); assay type: biochemical; conditions: OD340 nm; nocodazole and paclitaxel 10 μM
# Description: FIG. 3a-d. Stilbenes inhibit tubulin polymerization. (a) Effect of stilbene 4a. Pure tubulin was incubated with various concentrations of stilbene 4a, 10 μM nocodazole, and 10 μM paclitaxel in the polymerization buffer. The OD at 340 nm was monitored every minute by SpectraMAX 250 and plotted against time. (b) Effect of stilbene 4c. (c) Comparison of same concentrations of stilbenes 4a, 4a trans, 4c and 4c trans with control. […] Tubulin was incubated with [^3H]-colchicine and various concentrations of different stilbenes for 20 min. Tubulin was then separated from the unbound [^3H]-colchicine by Microcon-30 and washed three times with PBS. The radioactivity of the tubulin was counted. […] All experiments were done in triplicates.
# The tubulin polymerization assay kit was purchased from Cytoskeleton (Denver, Colo.). Tubulin (>99% pure) was mixed with general tubulin buffer (GTB, 80 mM PIPES pH 6.9, 2 mM MgCl2, 0.5 mM EGTA, and 1 mM GTP) in a 96-well plate at 37° C. Absorbance at 340 nm was measured every 1 min for 60 min by SpectraMAX 250 (Molecular Devices, Sunnyville, Calif.). Analysis of the results was performed by SoftMAX Pro version 1.2.0 from the same company.
# [1] = test system: tubulin (colchicine site); experiment: [3H]-colchicine competition for binding tubulin; conditions: 20 min, 37° C.
# Description: FIG. 3a-d. […] (a) Effect of stilbene 4a. Pure tubulin was incubated with various concentrations of stilbene 4a, 10 μM nocodazole, and 10 μM paclitaxel in the polymerization buffer. The OD at 340 nm was monitored every minute by SpectraMAX 250 and plotted against time. (b) Effect of stilbene 4c. (c) Comparison of same concentrations of stilbenes 4a, 4a trans, 4c and 4c trans with control. […] The radioactivity of the tubulin was counted. […] All experiments were done in triplicates.
# Tubulin retained in the Microcon was washed three times with PBS. The radioactivity of the final concentrated tubulin was determined by a scintillation counter.
# [2] = test system: SNU423 hepatocellular carcinoma cells; experiment: Alamar Blue cell growth inhibition, SNU423; assay type: cell-based; conditions: SNU423
# Description: Cell growth was measured by Alamar Blue™ staining and the OD absorbance at 570 and 600 nm was determined by a microplate reader. The percentage of cell growth inhibition was calculated and compared with the control cells that were treated with 0.1% DMSO, the vehicle for the stilbene compounds.
# Various cancer cell lines were grown in 96-well plates for drug sensitivity assays. Once cells achieved 50% confluence, the incubation media was changed to the same cell growth media with different concentrations of the tested compounds or vehicle alone. Cells were then incubated for 48 hours before the cell growth inhibition study. To determine the degree of cell growth inhibition, 1/10 volume of Alamar Blue™ solution was added to each well and optical density (OD) at 570 and 600 nm was determined. The percentage of growth inhibition was calculated according to the manufacturer's formula as follows: The percentage of growth is [(117216×A570)−(80586×A600)]/[(117216×A^o570)−(80586×A^o600)]×100. In this formula, A570 is the absorbance of the treated samples at 570 nm; A600 is the absorbance of the treated samples at 600 nm; A^o570 is the absorbance of the […] samples at 570 nm; and A^o600 is the absorbance of the untreated samples at 600 nm. The two constants, 117216 and 80586, are the extinction coefficients of Alamar Blue™ at 570 and 600 nm respectively. Each concentration was repeated in triplicate to minimize the error.
# We first tested the cytotoxic effect of various stilbene derivatives for their in vitro efficacy of suppressing tumor cell proliferation. Cells were first plated in 96-well plates at 50% confluence and treated with 0, 0.01, 0.03, 0.1, 0.3, 1.0, 3.0, 10 μM concentrations of stilbene derivatives for 48 hours in triplicate. Alamar Blue™ reagent was added into each well at 1/10 volume and incubated for 2 hours before quantification of the absorbance at 570 and 600 nm.
# [3] = test system: c-kit positive marrow progenitor cells; experiment: bone marrow c-kit-positive progenitor cells: cell cycle and colony forming assay; assay type: cell-based
# Description: FIG. 16. (a) Effect of stilbenes in normal bone marrow progenitor cells. c-kit-positive bone marrow mononuclear cells were isolated for incubation with stilbenes 4a or 4c at 0.1 or 0.5 […] for 16 hours. Cells were harvested for fixation and PI staining. Cell cycle analysis and quantification of the subG0/1 population were analyzed by FACScan flow cytometry. The percentages of the apoptotic population were indicated. Shown are the representatives of two independent experiments. (b) Effect of stilbenes in HL60 cells as positive control. HL60 cells were treated with stilbenes 4a or 4c in the same medium as the positive control. (c) Colony forming assay of the stilbene-treated c-kit-positive cells. A fraction of the cells in (a) were diluted and plated on methylcellulose medium at various densities. Cells were incubated for 14 days and the grossly visible colonies were counted. […] Isolated bone marrow c-kit-positive progenitor cells were incubated with DMSO or stilbenes 4a or 4c at 0.1 or 0.5 μM for 16 hours and injected into tail veins of CD45 congenic mice lethally irradiated with 1200 cGy. Mice were monitored for survival and lineage-specific donor engraftment by flow cytometry analysis of peripheral blood. The percentage of donor cells in T, B, and granulocytic series of the recipients were studied at 7 and 14 weeks after transplantation. Stilbene treated c-Kit progenitor cells had the same percentage as the DMSO treated control in all series.
# Mouse bone marrow was harvested from femur and tibia of […], subjected to red blood cell lysis, and labeled with anti-c-kit (3C11; CALTAG Laboratories, Burlingame, Calif.) and streptavidin-conjugated microbeads for MACS separation (Miltenyi Biotech, Auburn, Calif.). The c-kit positive marrow progenitor cells were incubated in Iscove's Modified Eagle's Media supplemented with 30% fetal bovine serum, erythropoietin, stem cell factor and interleukin-3 with or without stilbenes 4a or 4c. The ability of long-term proliferation of the c-kit-positive cells was evaluated with colony forming assay. Cells were first treated with DMSO, stilbenes 4a or 4c for 5 h and a fraction of the cells (4000 cells) were plated in the same enriched culture media with methylcellulose for colony forming assays. The grossly visible colonies were counted after 14 days of incubation.
# [4] = test system: c-kit-positive progenitor cells (engraftment); experiment: bone marrow transplantation of stilbene-treated progenitor cells; assay type: in vivo, mice; conditions: cells incubated at 0.1 or 0.5 μM for 16 hours
# Description: FIG. 16. (a) Effect of stilbenes in normal bone marrow progenitor cells. c-kit-positive bone marrow mononuclear cells were isolated for incubation with stilbenes 4a or 4c at 0.1 or 0.5 […] for 16 hours. Cells were harvested for fixation and PI staining. Cell cycle analysis and quantification of the subG0/1 population were analyzed by FACScan flow cytometry. The percentages of the apoptotic population were indicated. Shown are the representatives of two independent experiments. (b) Effect of stilbenes in HL60 cells as positive control. HL60 cells were treated with stilbenes 4a or 4c in the same medium as the positive control. (c) Colony forming assay of the stilbene-treated c-kit-positive cells. […] Cells were incubated for 14 days and the grossly visible colonies were counted. […] Mice were monitored for survival and lineage-specific donor engraftment by flow cytometry analysis of peripheral blood. […]
# C57BL/6J (H2b, CD45.2) mice served as bone marrow donors and were between 6-10 weeks of age. […] Peripheral blood engraftment in recipient mice was assessed by flow cytometry analysis for CD3+ (145-2C11; BD Biosciences, San Jose, Calif.) T-cells, B220+ (RA3-6B2) B-cells, Mac1+ (M1/70.15) monocytes, and Gr1+ (8C5) granulocytes and distinguished between donor versus recipient with anti-CD45.1 (A20) and anti-CD45.2 (104) monoclonal antibodies.
# [5] = test system: UCI101 ovarian cancer cells; experiment: Western blot of signal transduction events, UCI101; assay type: cell-based
# Description: All these agents are microtubule interfering agents but with different binding sites. Cells were harvested at 0, 4, 8, 16 and 36 hours after drug treatment for Western blot analysis. […] Phosphorylation of both Cdc25C and Cdc2 disappeared after 16 hours and slightly recovered at 36 hours. […] Akt phosphorylation decreased after 16 hours of treatment.
# In order to understand the mechanism of resistance of stilbenes, various signal transduction pathways were investigated to examine how cells respond to stilbene treatment. UCI101 ovarian cancer cells were treated with stilbenes 4a, 4c or paclitaxel (Taxol) at 0.1 μM for 0, 4, 8, 16 and 36 hours. Cells were harvested for Western blotting. Changes in the kinases involved in cell cycle progression from G2-M transition were first determined in Cdc2, Cdc25c, and mitotic spindle check point regulator BubR1. […] 36 hours after treatment, rephosphorylation of Cdc2 was observed. […] The higher molecular weight isomer of Cdc25c, the mitotic form, increased at 16 and 36 hours. […] A similar study was then performed with other microtubule interfering agents such as combretastatin A4, 13a and vincristine for comparison. A similar trend was observed among these three microtubule interfering agents (FIG. 18).
structure (smiles),measurement,setting,value
"COc1cc(/C=C\c2ccc(OC)c(O)c2)cc(OC)c1 [4c, (Z)5-[2-(3,5-Dimethoxy-phenyl)-vinyl]-2-methoxy-phenol]",effect on tubulin polymerization,Tubulin (>99% pure),suppressed tubulin polymerization in a dose-dependent manner but less potent than stilbene 4a
same,competition with [3H]-colchicine for tubulin,[1],dose-dependent suppression of tubulin-colchicine interaction
same,relative potency,[2],much more potent than the trans counterparts
same,cell cycle of marrow progenitor cells at 0.1 μM,[3],not affected
same,toxicity to normal bone marrow progenitor cells versus leukemia cells,[3],much less toxic to normal bone marrow progenitor cells
same,cell cycle of marrow progenitor cells at 0.5 μM,"[3]; BALB/c, mouse, 16 h, 0.5 μM",small increase in subG0/1 and G2 population
same,radioprotection of lethally irradiated mice by treated progenitor cells,[4],all mice were rescued from lethal irradiation
same,phosphorylation of Stat3,[5]; 0.1 μM,transient increase in phosphorylation at 4 and 8 hours
same,phosphorylation of Cdc2 at Tyr15,"[5]; 0.1 μM, 16 hours",decreased dramatically
same,phosphorylation of Chk1,[5]; 36 hours,do not cause more phosphorylation of Chk1
